Data published in doi:10.1101/2021.07.09.451751v1, “Identification of general acid catalyst for the ATPase activity of Lynch syndrome-related MutL homologs” (biorxiv, 2021).
Changes are numbered by the printed parent chain. pKd: −log10 of the molar value.

Columns and labels:
aqMutL NTD [1] = biological target: T1, aqMutL NTD (Aquifex aeolicus, UniProt O67518, K79A); experiment: equilibrium dialysis; type: binding
T1 construct: gene mutL; recombinant from E. coli
T1 sequence (O67518 1-319 K79A limits assumed): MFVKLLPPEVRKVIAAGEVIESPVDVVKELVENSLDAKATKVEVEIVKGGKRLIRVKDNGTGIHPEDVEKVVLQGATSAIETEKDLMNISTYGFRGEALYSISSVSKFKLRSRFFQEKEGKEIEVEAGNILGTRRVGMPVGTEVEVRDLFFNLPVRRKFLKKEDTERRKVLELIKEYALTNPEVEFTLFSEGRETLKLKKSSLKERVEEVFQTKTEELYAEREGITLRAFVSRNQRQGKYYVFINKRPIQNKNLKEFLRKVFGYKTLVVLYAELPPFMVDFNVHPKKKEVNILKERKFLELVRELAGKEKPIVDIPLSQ

aqMutL NTD [2] = biological target: T2, aqMutL NTD (Aquifex aeolicus, UniProt O67518); experiment: equilibrium dialysis; type: binding
T2 construct: gene mutL; recombinant from E. coli
T2 sequence (O67518 1-319 limits assumed): T1 sequence (O67518 1-319 K79A limits assumed) with A79K

Nc1ncnc2c1ncn2[C@@H]1O[C@H](COP(=O)(O)OP(=O)(O)NP(=O)(O)O)[C@@H](O)[C@H]1O [AMPPNP]
pKd (aqMutL NTD [1]): 3.47 | pKd (aqMutL NTD [2]): 3.52
